Measurements published in patent US5298494A, “Monosaccharides having anti-proliferation and anti-inflammatory activity, compositions and uses thereof” (Greenwich Pharmaceuticals Incorporated, priority 1993, dated 1994).

System: Interleukin 1 (IL-1) production by peritoneal macrophages
Test: IL-1 Assay: production of interleukin-1 by peritoneal macrophages (thymocyte bioassay)
Assay type: cell-based, mouse (C57B1/6)
Design: inhibition: dose or concentration left out as unconfirmed
Settings: for inhibition at 0.001 µg/mL / inhibition at 0.01 µg/mL / inhibition at 0.1 µg/mL / inhibition at 2.5 µg/mL / inhibition at 10 µg/mL / inhibition at 25 µg/mL / inhibition at 100 µg/mL / inhibition: Mus musculus, Peritoneal macrophage, read-out: % effect on IL-1 production (thymidine uptake by thymocytes)
Source text: Interleukin 1 (IL-1) is a potent immunomodulatory cytokine that has a broad range of pro-inflammatory activities. IL-1 is known to be produced by activated accessory cells such as macrophages. Accessory cell production of IL-1 results in the activation and proliferation of T and B lymphocytes. Therefore, by inhibiting macrophage activation and production of IL-1, the activation and proliferation of the cellular effectors of inflammation can be modulated. Compounds of the invention were screened for inhibitory activity in a classical IL-1 assay. Six to 8 week old male C57B1/6 mice were purchased from Harlan Sprague Dawley. Peritoneal macrophages were elicited by the administration to mice of a single intraperitoneal injection of 0.2 ml of complete Freund's adjuvant. After 48 hours, elicited macrophages were removed from the mice by lavage with the use of Hank's balanced salt solution. […] To the macrophage cultures were added various doses of the compounds of the invention and 10 ug/ml of the macrophage activator lipopolysaccharide (to stimulate IL-1 production). Control cultures consisted of macrophages, lipopolysaccharide and culture medium containing various doses of DMSO only. […] The amount of IL-1 produced in the individual wells was determined in a bioassay for IL-1. This involved the removal of thymuses from mice less than 8 weeks of age. Thymocytes were isolated by passing each thymus through a stainless steel mesh screen. […] After 18 hours cells were harvested and radioactive incorporation (as a measure of cell proliferation) was quantitated in a liquid scintillation counter. The students t test was used to determine the significance of the difference between experimental and control values.

Compound | ^3 H-Thymidine uptake by thymocytes (0.001 ug/ml) | ^3 H-Thymidine uptake by thymocytes (0.01 ug/ml) | ^3 H-Thymidine uptake by thymocytes (0.1 ug/ml) | ^3 H-Thymidine uptake by thymocytes (1 ug/ml) | ^3 H-Thymidine uptake by thymocytes (2.5 ug/ml) | ^3 H-Thymidine uptake by thymocytes (10 ug/ml) | ^3 H-Thymidine uptake by thymocytes (25 ug/ml) | ^3 H-Thymidine uptake by thymocytes (100 ug/ml) | inhibition at 0.001 µg/mL (0.001 ug/ml) [%] | inhibition at 0.01 µg/mL (0.01 ug/ml) [%] | inhibition at 0.1 µg/mL (0.1 ug/ml) [%] | inhibition at 2.5 µg/mL (2.5 ug/ml) [%] | inhibition at 10 µg/mL (10 ug/ml) [%] | inhibition at 25 µg/mL (25 ug/ml) [%] | inhibition at 100 µg/mL (100 ug/ml) [%] | inhibition [%]
CC1(C)OC2OC(C(O)COCCCc3ccccc3)C(O)C2O1 [IIIe, 1,2-O-Isopropylidene-6-O-3'-(phenylpropyl)-α-D-glucofuranose] | 7,276 ± 399 cpm | 8,908 ± 773 cpm | 8,049 ± 282 cpm | 4,279 ± 691 cpm | 3,676 ± 506 cpm | 2,586 ± 553 cpm | 1,840 ± 301 cpm | 1,129 ± 299 cpm | -11 | -8 | -4 | 56 | 66 | 76 | 83 | -45
CN1CCCC1CCNC[C@H]1OC(C)(C)O[C@@H]2[C@H]3OC(C)(C)O[C@H]3O[C@@H]21 (stereo partly shown) [IIIi] | 11,367 ± 906 cpm | 9,902 ± 888 cpm | 10,740 ± 724 cpm | 9,561 ± 113 cpm | 5,382 ± 45 cpm | 5,169 ± 870 cpm | 5,052 ± 140 cpm | 2,328 ± 278 cpm | -39 | -20 | -39 | 35 | 33 | 34 | 65 | -22
CCCCCCCOC[C@H]1O[C@@]2(OC)COC(C)(C)O[C@H]2[C@@H]1O [Ia, methyl 1,3-O-isopropylidene-6-O-heptyl-α-D-fructofuranoside] | 10,550 cpm | 10,960 cpm | 10,265 ± 227 cpm | 10,777 ± 1,903 cpm | 8,250 ± 705 cpm | 4,970 ± 410 cpm | 3,210 ± 149 cpm | 2,215 ± 643 cpm | 3 | -1 | 8 | 28 | 51 | 63 | 75 | 2
CCCCC/C=C/COC[C@H]1O[C@@]2(OC)COC(C)(C)O[C@H]2[C@@H]1OC/C=C/CCCCC [Ie, methyl 1,3-O-isopropylidene-4,6-di-O-(trans,2-octenyl)-α-D-fructofuranoside] | 12,713 ± 866 cpm | 12,040 cpm | 11,047 ± 702 cpm | 9,710 ± 1,323 cpm | 7,000 ± 686 cpm | 6,100 ± 775 cpm | 5,300 ± 1,405 cpm | 4,300 ± 1,100 cpm | -17 | -11 | 1 | 30 | 40 | 40 | 51 | 12
